Legend:
[1] = target: T1, recombinant human liver GK (Homo sapiens, UniProt P35557); test: Glucokinase-activating effect (Thio-NADH coupled assay with G6PDH, 2.5 mM glucose); format: biochemical; conditions: comparative test in vitro, similar to pharmacological experiment 1; read-out: GK activity EC50
T1 construct: made in house; host or cells: E. coli
T1 sequence (P35557 1-466 isoform P35557-2): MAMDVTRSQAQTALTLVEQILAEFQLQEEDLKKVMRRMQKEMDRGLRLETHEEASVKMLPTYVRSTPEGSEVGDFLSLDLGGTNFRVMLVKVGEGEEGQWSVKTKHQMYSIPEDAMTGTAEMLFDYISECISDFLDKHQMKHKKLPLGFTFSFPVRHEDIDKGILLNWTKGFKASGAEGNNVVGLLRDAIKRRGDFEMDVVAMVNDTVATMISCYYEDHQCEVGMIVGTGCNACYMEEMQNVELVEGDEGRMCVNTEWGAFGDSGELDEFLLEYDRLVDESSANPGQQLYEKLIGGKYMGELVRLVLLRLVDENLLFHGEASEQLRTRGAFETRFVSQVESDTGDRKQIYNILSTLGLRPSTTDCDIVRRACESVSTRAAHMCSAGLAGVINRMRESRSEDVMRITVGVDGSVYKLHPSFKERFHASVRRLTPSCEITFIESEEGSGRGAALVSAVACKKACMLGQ
From the text: The excellent glucokinase-activating effect of the compounds of the formula (I) may be determined by a method described in literature (for example, Diabetes, Vol. 45, pp. 1671-1677, 1996), or in accordance with it.
The glucokinase activity may be determined not by directly measuring glucose-6-phosphate but by measuring the level of Thio-NADH, which is produced when a reporter enzyme, glucose-6-phosphate dehydrogenase produces phosphogluconolactone from glucose-6-phosphate, and based on the level, the degree of glucokinase activation by the compound tested may be determined
In this assay, used was a recombinant human liver GK, which was expressed by E. coli as a FLAG fusion protein therein and was purified by ANTIFLAG M2 AFFINITY GEL (Sigma).
Using a flat-bottomed 96-well plate, the assay was carried out at 30° C. 69 μl of an assay buffer (25 mM Hepes Buffer/pH=7.2, 2 mM MgCl2, 1 mM ATP, 0.5 mM TNAD, 1 mM dithiothreitol) was put into the plate, and 1 μl of a DMSO solution of the compound or DMSO alone as a control was added thereto. Next, 20 μl of an enzyme mixture (FLAG-GK, 20 U/ml G6PDH) cooled in ice was added to it, and 10 μl of a substrate, 25 mM glucose was added to it, and the reaction was initiated (final glucose concentration=2.5 mM).
After the start of the reaction, the increase in the absorbance at 405 nm was measured for 12 minutes at intervals of 30 seconds, and the increase for the first 5 minutes was used for assessing the compound tested. FLAG-GK was added so that the absorbance increase after 5 minutes in the presence of 1% DMSO could be from 0.04 to 0.06.
The OD level of the DMSO control was set as 100%; and the OD level of the test compound at different concentrations was determined. From the OD level at each concentration, Emax (%) and EC50 (μM) were computed and used as the index of the GK-activating potency of the compound.
The comparative test was conducted to compare the compound of example 18, 31 and 32 in this invention with the compound (A) in the patent document 1. The test method in vitro was similar to pharmacological experiment 1 (glucokinase-activating effect).

[2] = system: male beagles; test: Pharmacological Test Example 3: drug efficacy test in dogs (plasma glucose level AUC); format: in vivo; conditions: male beagles fasted overnight; oral 1 mg/kg in 0.5% methyl cellulose; compared to control group up to 4 hours after administration
Protocol: (§1) From the cephalic vein of male beagles fasted overnight (8.5-13.7 kg body weight), blood was collected prior to administration, followed by oral administration of the test drug suspended in a 0.5% methyl cellulose solution (1 mg/kg in both of Examples 30 and 31), while a 0.5% methyl cellulose solution was orally administered to the control group. The blood was collected every 0.5 or 1 hour after the administration of the test drug. Plasma was separated from the obtained blood to determine a plasma glucose level using Determina-GL-E (Kyowa Medics).
Percentage reductions in plasma glucose level AUC compared to the control group up to 4 hours after the administration were described below.

[3] = system: male beagles; test: Pharmacological Test Example 2: drug efficacy test in dogs (plasma glucose level AUC); format: in vivo; conditions: for Percentage reduction (%) in plasma glucose level AUC: male beagles fasted overnight, oral 1 mg/kg in 0.5% methyl cellulose, compared to control group up to 4 hours after administration
Protocol: as §1, with “(10.4-13.7” for “(8.5-13.7”, “the compounds of Example A” for “Examples 30”, “Example 18),” for “31),”, “Medics). Percentage reductions in plasma glucose level AUC compared to the control group up to 4 hours after the administration were described below.” for “Medics).”

Row | EC50 [1] | Structure (SMILES) | Percentage reduction (%) in plasma glucose level AUC [2] | drug efficacy in the dogs ([3]; in vivo tests in dogs, summary statement) | Percentage reduction (%) in plasma glucose level AUC [3]
1 | 440 nM | Cc1cnc(Nc2ncnc3ccc(Oc4ccc(OCCN(C)C)cn4)cc23)cn1 [Example 31, 6-({5-[2-(dimethylamino)ethoxy]pyridin-2-yl}oxy)-N-(5-methylpyrazin-2-yl)quinazoline-4-amine] | 7.9% | – | –
2 | – | Cc1cnc(Nc2ncnc3ccc(Oc4ncccc4Cl)cc23)cn1 [Compound A] | −1% | no drug efficacy | −1%
3 | 30 nM | CCNCCOc1cnc(Oc2ccc3ncnc(Nc4ccn(C)n4)c3c2)c(Cl)c1.Cl [Example 18, 6-({3-chloro-5-[2-(ethylamino)ethoxy]pyridin-2-yl}oxy)-N-(1-methyl-1H-pyrazol-3-yl)quinazoline-4-amine hydrochloride] | – | – | 26%
4 | 40 nM | CNCCOc1cnc(Oc2ccc3ncnc(Nc4cnc(C)cn4)c3c2)c(Cl)c1.Cl [Example 32, 6-({3-chloro-5-[2-(methylamino)ethoxy]pyridin-2-yl}oxy)-N-(5-methylpyrazin-2-yl)quinazoline-4-amine hydrochloride] | 17.5% | – | –
